Assay results: PubChem BioAssay AID248 (DTP/NCI, 2004)
“And” between values parts separate entries of the source, which are not always exact repeats. Identical values can stand only once. Inconclusive results and toxic doses are left out. Rule as the data show it: active = T/C of 150% or more; inactive = T/C below 125%.

Test system: L1210 leukemia ip in BDF1 mice, survival T/C
Test: NCI In Vivo Anticancer Drug Screen. Data for tumor model L1210 Leukemia (intraperitoneal) in B6D2F1 (BDF1) mice
Conditions: endpoint: mean survival time, higher = longer survival
In short: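 Mice bearing the transplanted tumor received compound or vehicle. Survival of the treated group was divided by that of the vehicle-treated control group to give the ratio.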

[1] = dose: 100.0 mg/kg/injection, schedule: Q04DX002 (ip), vehicle: saline
[2] = dose: 200.0 mg/kg/injection, schedule: Q04DX002 (ip), vehicle: saline
[3] = dose: 400.0 mg/kg/injection, schedule: Q04DX002 (ip), vehicle: saline
[4] = dose: 100.0 mg/kg/injection, schedule: Q01DX009 (ip), vehicle: Klucel (hydroxypropylcellulose) (HPC)
[5] = dose: 200.0 mg/kg/injection, schedule: Q01DX009 (ip), vehicle: Klucel (hydroxypropylcellulose) (HPC)
[6] = dose: 100.0 mg/kg/injection, schedule: Q04DX003 (ip), vehicle: Klucel (hydroxypropylcellulose) (HPC)
[7] = dose: 100.0 mg/kg/injection, schedule: Q04DX003 (ip), vehicle: saline with Tween-80
[8] = dose: 200.0 mg/kg/injection, schedule: Q04DX003 (ip), vehicle: saline with Tween-80
[9] = dose: 400.0 mg/kg/injection, schedule: Q04DX003 (ip), vehicle: saline with Tween-80
[10] = dose: 50.0 mg/kg/injection, schedule: Q01DX009 (ip), vehicle: Klucel (hydroxypropylcellulose) (HPC)
[11] = dose: 100.0 mg/kg/injection, schedule: Q01DX009 (ip), vehicle: saline
[12] = dose: 200.0 mg/kg/injection, schedule: Q01DX009 (ip), vehicle: saline
[13] = dose: 100.0 mg/kg/injection, schedule: Q04DX003 (ip), vehicle: acetone
[14] = dose: 200.0 mg/kg/injection, schedule: Q04DX003 (ip), vehicle: acetone
[15] = dose: 400.0 mg/kg/injection, schedule: Q04DX003 (ip), vehicle: acetone
[16] = dose: 50.0 mg/kg/injection, schedule: Q01DX009 (ip), vehicle: saline with Tween-80
[17] = dose: 100.0 mg/kg/injection, schedule: Q01DX009 (ip), vehicle: saline with Tween-80
[18] = dose: 200.0 mg/kg/injection, schedule: Q01DX009 (ip), vehicle: saline with Tween-80

Measured: T/C

Cc1ccc(S(=O)(=O)N(SSN(c2ccccc2)S(=O)(=O)c2ccc(C)cc2)c2ccccc2)cc1
inactive: dose: 100.0 mg/kg/injection, schedule: Q04DX002 (ip), vehicle: carboxymethylcellulose (CMC) 95 % of control and 98 % of control | dose: 200.0 mg/kg/injection, schedule: Q04DX002 (ip), vehicle: carboxymethylcellulose (CMC) 95 % of control and 101 % of control | dose: 400.0 mg/kg/injection, schedule: Q04DX002 (ip), vehicle: carboxymethylcellulose (CMC) 95 % of control and 106 % of control

Cc1c[nH]c(=O)[nH]1
inactive: [1] 109 % of control | [2] 106 % of control | [3] 117 % of control

CCOc1ccccc1NC(=O)Nc1ccccc1C(F)(F)F
inactive: [4] 94 % of control | [5] 96 % of control | dose: 400.0 mg/kg/injection, schedule: Q01DX009 (ip), vehicle: Klucel (hydroxypropylcellulose) (HPC) 91 % of control

CNC(=S)N/N=C/c1cc(Cl)cc(Cl)c1
inactive: dose: 100.0 mg/kg/injection, schedule: Q01DX001 (ip), vehicle: other 102 % of control | dose: 200.0 mg/kg/injection, schedule: Q01DX001 (ip), vehicle: other 102 % of control | dose: 400.0 mg/kg/injection, schedule: Q01DX001 (ip), vehicle: other 98 % of control

CCN(CC)CCCC(C)Nc1c2ccccc2nc2c(Cl)cccc12 (stereo not drawn)
inactive: dose: 20.0 mg/kg/injection, schedule: Q01DX Z (ip), vehicle: methylcellulose (MC) 100 % of control and 86 % of control | dose: 30.0 mg/kg/injection, schedule: Q01DX Z (ip), vehicle: methylcellulose (MC) 92 % of control and 87 % of control | dose: 45.0 mg/kg/injection, schedule: Q01DX Z (ip), vehicle: methylcellulose (MC) 95 % of control and 101 % of control | dose: 67.0 mg/kg/injection, schedule: Q01DX Z (ip), vehicle: methylcellulose (MC) 91 % of control | [6] 102 % of control

CC(C)n1cnc2nc[nH]c2c1=S
inactive: dose: 25.0 mg/kg/injection, schedule: Q01DX001 (ip), vehicle: Klucel (hydroxypropylcellulose) (HPC) 91 % of control | dose: 25.0 mg/kg/injection, schedule: Q04DX003 (ip), vehicle: Klucel (hydroxypropylcellulose) (HPC) 95 % of control | dose: 50.0 mg/kg/injection, schedule: Q01DX001 (ip), vehicle: Klucel (hydroxypropylcellulose) (HPC) 95 % of control | dose: 50.0 mg/kg/injection, schedule: Q04DX003 (ip), vehicle: Klucel (hydroxypropylcellulose) (HPC) 102 % of control | dose: 100.0 mg/kg/injection, schedule: Q01DX001 (ip), vehicle: Klucel (hydroxypropylcellulose) (HPC) 98 % of control | [6] 92 % of control

[O-][N+](=C(c1ccccc1)c1ccccc1)c1ccccc1
inactive: [7] 101 % of control | [8] 93 % of control | [9] 90 % of control

Cc1n(CCBr)c([N+](=O)[O-])c[n+]1C1N=C(c2ccccc2Cl)c2cc(Cl)ccc2NC1=O (stereo not drawn)
inactive: [10] 86 % of control | [5] 89 % of control

OC(C1CO1)(C(F)(F)F)C(F)(F)F (stereo not drawn)
inactive: [11] 98 % of control | [7] 92 % of control | [12] 106 % of control | [8] 91 % of control | [9] 97 % of control

CC(C)(C)CC(C)(C)c1ccc(Oc2ccc([N+](=O)[O-])cc2S(=O)(=O)O)cc1
inactive: [7] 97 % of control

CC(=O)c1ccc(F)c(C)c1
inactive: dose: 100.0 mg/kg/injection, schedule: Q04DX003 (ip), vehicle: saline sonified 93 % of control | dose: 200.0 mg/kg/injection, schedule: Q04DX003 (ip), vehicle: saline sonified 97 % of control | dose: 400.0 mg/kg/injection, schedule: Q04DX003 (ip), vehicle: saline sonified 93 % of control

COc1cc2c(cc1OC)C1c3cc(OC)c(OC)cc3CC(=O)N1CC2 (stereo not drawn)
inactive: dose: 50.0 mg/kg/injection, schedule: Q01DX009 (ip), vehicle: saline 87 % of control | [11] 104 % of control | dose: 100.0 mg/kg/injection, schedule: Q04DX003 (ip), vehicle: saline 100 % of control | [12] 102 % of control | dose: 200.0 mg/kg/injection, schedule: Q04DX003 (ip), vehicle: saline 96 % of control | dose: 400.0 mg/kg/injection, schedule: Q01DX009 (ip), vehicle: saline 98 % of control | dose: 400.0 mg/kg/injection, schedule: Q04DX003 (ip), vehicle: saline 95 % of control

O=C(COc1ccc([N+](=O)[O-])cc1Cl)Nc1ccccc1
inactive: dose: 100.0 mg/kg/injection, schedule: Q01DX009 (ip), vehicle: acetone 90 % of control | [13] 95 % of control | [14] 95 % of control | [15] 94 % of control

COc1c(/C=C/[N+](=O)[O-])ccc2c(C)c(C)oc12
inactive: dose: 25.0 mg/kg/injection, schedule: Q01DX009 (ip), vehicle: Klucel (hydroxypropylcellulose) (HPC) 98 % of control | [10] 95 % of control | [4] 101 % of control | [6] 98 % of control | dose: 200.0 mg/kg/injection, schedule: Q04DX003 (ip), vehicle: Klucel (hydroxypropylcellulose) (HPC) 87 % of control | dose: 400.0 mg/kg/injection, schedule: Q04DX003 (ip), vehicle: Klucel (hydroxypropylcellulose) (HPC) 92 % of control

CCOCC(=O)Cc1ccccc1
inactive: [16] 95 % of control | [17] 100 % of control | [18] 92 % of control

S=P(NCCSCc1ccccc1)(N1CC1)N1CC1
inactive: dose: 6.5 mg/kg/injection, schedule: Q01DX011 (ip), vehicle: carboxymethylcellulose (CMC) 98 % of control | dose: 13.0 mg/kg/injection, schedule: Q01DX011 (ip), vehicle: carboxymethylcellulose (CMC) 102 % of control | dose: 26.0 mg/kg/injection, schedule: Q01DX011 (ip), vehicle: carboxymethylcellulose (CMC) 110 % of control | dose: 200.0 mg/kg/injection, schedule: Q01DX015 (ip), vehicle: carboxymethylcellulose (CMC) 106 % of control

O=C(Nc1cc(Cl)cc(Cl)c1)C(Cl)Cl
inactive: dose: 50.0 mg/kg/injection, schedule: Q01DX001 (ip), vehicle: carboxymethylcellulose (CMC) 117 % of control | dose: 100.0 mg/kg/injection, schedule: Q01DX001 (ip), vehicle: carboxymethylcellulose (CMC) 109 % of control | dose: 200.0 mg/kg/injection, schedule: Q01DX001 (ip), vehicle: carboxymethylcellulose (CMC) 105 % of control | dose: 400.0 mg/kg/injection, schedule: Q01DX001 (ip), vehicle: carboxymethylcellulose (CMC) 109 % of control

C=C(CSCC(=O)O)c1ccccc1
inactive: [1] 105 % of control | [2] 97 % of control | [3] 97 % of control

O=C1OC2C(I)C3CC1C2C3 (stereo not drawn)
inactive: [16] 96 % of control | [17] 95 % of control

Cc1ccc(S(=O)(=O)NC(c2ccccc2)(c2ccccc2)c2ccccc2)cc1
inactive: [17] 96 % of control | [13] 96 % of control | [18] 88 % of control | [14] 95 % of control | dose: 400.0 mg/kg/injection, schedule: Q01DX009 (ip), vehicle: saline with Tween-80 93 % of control | [15] 96 % of control

OC[CH2][Hg][Cl]
inactive: dose: 1.56 mg/kg/injection, schedule: Q01DX009 (ip), vehicle: saline 94 % of control | dose: 3.13 mg/kg/injection, schedule: Q01DX009 (ip), vehicle: saline 86 % of control
